Like-named read-outs stand apart in the source and are kept apart here.
Assays:
human recombinant MAO-A [1] = biological target: T1, human recombinant MAO-A (Homo sapiens, UniProt P21397); assay: MAO-GLO luminescence assay of MAO-A catalytic activity; assay type: biochemical; settings: read-out: MAO-A residual activity
T1 sequence (P21397 1-527): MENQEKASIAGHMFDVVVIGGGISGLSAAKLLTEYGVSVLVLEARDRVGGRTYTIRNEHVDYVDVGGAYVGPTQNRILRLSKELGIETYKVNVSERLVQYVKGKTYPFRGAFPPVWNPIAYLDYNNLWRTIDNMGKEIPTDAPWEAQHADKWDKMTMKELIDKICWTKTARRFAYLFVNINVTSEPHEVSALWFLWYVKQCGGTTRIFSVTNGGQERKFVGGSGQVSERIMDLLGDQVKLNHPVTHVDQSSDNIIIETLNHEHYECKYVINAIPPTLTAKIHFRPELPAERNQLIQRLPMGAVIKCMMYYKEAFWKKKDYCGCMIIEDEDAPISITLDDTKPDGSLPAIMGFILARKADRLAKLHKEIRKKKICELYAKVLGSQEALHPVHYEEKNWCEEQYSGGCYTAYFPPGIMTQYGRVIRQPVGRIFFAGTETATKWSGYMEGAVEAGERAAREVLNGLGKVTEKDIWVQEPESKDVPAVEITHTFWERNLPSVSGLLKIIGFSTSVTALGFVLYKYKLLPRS
Protocol: (§1) Optimization of the compounds, however, aimed predominantly at elimination of MAO-A-inhibitory activity while keeping DYRK1A inhibitory potency, and not at achieving high selectivity for DYRK1A over CLK1. The tests were performed as described by us before in detail. Due to the very large number of test compounds (more than 60), a first screening was performed at a single inhibitor concentration of 1 µM.
(§2) Inhibitors were dissolved in DMSO at a concentration of 10 mM and stored at […]. Working solutions were prepared to achieve a final concentration of 1 µM in the enzyme assays.
Catalytic activity of monoamine oxidase A (MAO-A) was measured by using the luminescence-based MAO-GLO^TM Assay from Promega. Recombinant MAO-A converts a luminogenic MAO substrate into luciferin, which is, in turn, luminometrically detected in a luciferase reaction. The amount of light produced is directly proportional to MAO activity. […] Inhibitory effects of the tested compounds were calculated relative to the activity of control reactions that were run in the absence of inhibitors.

[2] = biological target: T2, GST-CLK1cat (amino acids 141–484 of human CLK1) (Homo sapiens, UniProt P49759); assay: Kinase-GLO luminescent assay of CLK1 catalytic activity; assay type: biochemical; settings: read-out: CLK1 residual activity
T2 construct: containing amino acids 141–484 of human CLK1; made in house; host or cells: E. coli
Protocol: as §1, §2
(§3) Recombinant kinases were purified from E. coli as GST (glutathione S-transferase) fusion constructs by affinity adsorption to glutathione-Sepharose. […] Catalytic activity of the kinases was measured with the help of the Kinase-GLO^TM Luminescent Assay from Promega. Assays were performed in a total volume of 10 μL in kinase buffer (25 mM Hepes pH 7.4, 0.5 mM DTT, 5 mM MgCl2, 5 μM ATP) with appropriate peptide substrates (20 μM DYRKtide for the DYRKs and 100 μM DYRKtide for HIPK2, […]; or 100 μM RS peptide for CLK1, […]). Kinases amounts in the assays were adjusted so that approximately 90% of the ATP in the assay was consumed in control samples without inhibitor. Kinase reactions were incubated at room temperature for 30 min before 10 μL Kinase-GLO reagent was added for luminometric measurement of the ATP that was not consumed by the kinases. After incubation at room temperature for an additional 10 min, luminescence was recorded for 1 s (Berthold Orion Microplate Luminometer). ATP consumption in the control samples without inhibitor was set as 100% catalytic activity, and the inhibitory effects of the test compounds were calculated relative to this value.

[3] = tested on: GST-DYRK1A-ΔC (amino acids 1–499 of rat DYRK1A); assay: Kinase-GLO luminescent assay of DYRK1A catalytic activity; assay type: biochemical; settings: ratio of the MAO-A and DYRK1A IC50 values of Table 2
[4] = biological target: T3, GST-DYRK1A-ΔC (amino acids 1–499 of rat DYRK1A) (Rattus norvegicus, UniProt Q63470); assay: as above; assay type: biochemical; settings: read-out: DYRK1A residual activity
T3 construct: containing amino acids 1–499 of rat DYRK1A; made in house; host or cells: E. coli
Protocol: as §1, §2, §3

MAO-A = tested on: MAO-A; parameters: method as in PMID 21183355; settings: compared with harmine; cited from earlier work
[5] = Solubility as observed in the enzyme assays; settings: could not be analyzed properly in the enzyme assays
human recombinant MAO-A [6] = biological target: T1, human recombinant MAO-A; parameters: method as in PMID 26192590; settings: 95% confidence intervals in parentheses; cited from earlier work
DYRK4 = settings: cited from earlier work
DYRK3 = settings: compared with DYRK1A/DYRK1B; cited from earlier work
DYRK1B = settings: ATP competitive; cited from earlier work
DYRK1A = settings: ATP competitive; cited from earlier work
DYRK2 = settings: compared with DYRK1A/DYRK1B; cited from earlier work
[7] = 1 µM inhibitor concentration, residual activity relative to control without inhibitor

T2 sequence (P49759 141-484): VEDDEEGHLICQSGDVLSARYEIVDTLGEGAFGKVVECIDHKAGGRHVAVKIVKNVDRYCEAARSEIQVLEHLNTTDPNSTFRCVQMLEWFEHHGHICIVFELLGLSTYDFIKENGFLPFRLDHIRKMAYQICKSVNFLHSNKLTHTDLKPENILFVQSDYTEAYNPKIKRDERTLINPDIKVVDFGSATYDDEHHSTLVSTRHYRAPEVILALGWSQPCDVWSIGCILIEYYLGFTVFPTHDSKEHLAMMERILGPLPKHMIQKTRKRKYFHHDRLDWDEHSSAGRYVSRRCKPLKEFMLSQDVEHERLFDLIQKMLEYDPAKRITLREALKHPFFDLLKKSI

COc1ccc2c3ccnc(C)c3n(CC#N)c2c1 [AnnH31, 2-(7-Methoxy-1-methyl-9H-pyrido[3,4-b]indol-9-yl)-acetonitrile]
remaining activity at 1 µM (human recombinant MAO-A [1]; [7]): 75%
remaining activity at 1 µM [2, 7]: 11%
Selectivity for DYRK1A over MAO-A [3]: 40
remaining activity at 1 µM [4, 7]: 8%

Cc1nccc2c1[nH]c1cc(OCCN(C)C)ccc12 [AnnH62]
remaining activity at 1 µM (human recombinant MAO-A [1]; [7]): 22%
Factor of reduction of MAO-A inhibition (MAO-A): 60
remaining activity at 1 µM [2, 7]: 100%
remaining activity at 1 µM [4, 7]: 95%

O=c1[nH]ccc2c1[nH]c1c(Cl)c(Cl)ccc12 [AnnH65, 7,8-Dichloro-2,9-dihydro-1H-pydrido[3,4-b]indol-1-one]
Solubility [5]: very poor
remaining activity at 1 µM [4, 7]: 100%

COc1ccc2c3ccnc(Cl)c3n(CC#N)c2c1 [AnnH75, 2-(1-Chloro-7-methoxy-9H-pyrido[3,4-b]indol-9-yl)acetonitrile]
remaining activity at 1 µM (human recombinant MAO-A [1]; [7]): 119%
IC50 (human recombinant MAO-A [6]): > 10000 nM
remaining activity at 1 µM [4]: 10%

COc1ccc2c(c1)[nH]c1c(C)nccc12 [harmine]
DYRK4 inhibition (DYRK4): basically resistant
remaining activity at 1 µM (human recombinant MAO-A [1]): 3%
DYRK3 inhibition (DYRK3): only inhibited at much higher concentrations
remaining activity at 1 µM [2]: 23%
IC50 (DYRK1B): 33 to 170 nM
remaining activity at 1 µM [4]: 27%
DYRK2 inhibition (DYRK2): only inhibited at much higher concentrations
